According to the NIST ThermoML archive (doi:10.1016/j.jct.2012.09.028):

Assay: molar heat capacity at constant pressure
Details: 101.33 kPa, Crystal, Vacuum adiabatic calorimetry

O=C[C@H](O)[C@@H](O)[C@H](O)CO [D-xylose]
Details | molar heat capacity at constant pressure [J/K/mol]
0.5 K | 0.0003448
1 K | 0.0013
1.5 K | 0.003533
1.9 K | 0.006645
2 K | 0.007825
2.04 K | 0.008242
2.083 K | 0.008788
2.243 K | 0.01097
2.3 K | 0.01187
2.472 K | 0.01471
2.5 K | 0.01512
2.538 K | 0.01596
2.632 K | 0.01783
2.787 K | 0.02124
2.901 K | 0.02401
3 K | 0.02656
3.078 K | 0.02907
3.204 K | 0.03288
3.413 K | 0.04037
3.5 K | 0.04351
3.544 K | 0.04525
3.773 K | 0.05561
3.939 K | 0.06374
4 K | 0.06758
4.203 K | 0.07931
4.383 K | 0.09097
4.5 K | 0.1006
4.66 K | 0.1124
4.87 K | 0.1305
5 K | 0.1446
5.179 K | 0.1619
5.436 K | 0.1916
5.5 K | 0.2018
5.775 K | 0.2386
6 K | 0.2744
6.082 K | 0.2866
6.466 K | 0.3591
6.5 K | 0.3648
6.745 K | 0.4181
7 K | 0.4752
7.159 K | 0.5189
7.497 K | 0.6119
7.5 K | 0.6076
7.959 K | 0.7584
8 K | 0.7638
8.353 K | 0.8969
8.5 K | 0.945
8.863 K | 1.101
9 K | 1.152
9.3 K | 1.292
9.5 K | 1.385
9.864 K | 1.569
10 K | 1.644
10.35 K | 1.83
10.97 K | 2.212
11 K | 2.219
11.52 K | 2.546
12 K | 2.871
12.19 K | 2.736
12.72 K | 3.408
13 K | 3.59
13.56 K | 4.028
14 K | 4.364
14.25 K | 4.551
15 K | 5.182
15.07 K | 5.238
15.84 K | 5.872
16 K | 6.036
16.59 K | 6.471
17 K | 6.917
17.61 K | 7.437
18 K | 7.819
18.42 K | 8.194
18.99 K | 8.794
19 K | 8.734
20 K | 9.657
20.27 K | 9.969
21.17 K | 10.74
22.58 K | 12.06
23.64 K | 13.08
25 K | 14.25
25.13 K | 14.39
26.29 K | 15.41
27.98 K | 16.85
29.32 K | 17.97
30 K | 18.55
31.15 K | 19.42
32.68 K | 20.56
34.69 K | 22.14
35 K | 22.47
36.33 K | 23.55
38.59 K | 25.09
40 K | 26.03
40.53 K | 26.51
42.93 K | 27.98
45 K | 29.36
45.13 K | 29.46
47.76 K | 31.18
50 K | 32.58
50.2 K | 32.51
53.12 K | 34.56
55 K | 35.68
55.82 K | 36.43
59.09 K | 38.3
60 K | 38.82
62.21 K | 40.2
65 K | 41.94
65.77 K | 42.39
69.15 K | 44.37
70 K | 45.05
73.12 K | 46.67
75 K | 48.14
76.88 K | 49.05
80 K | 51.21
81.26 K | 51.82
85 K | 54.27
85.51 K | 54.66
90 K | 57.3
90.3 K | 57.7
95 K | 60.32
95.15 K | 60.59
100 K | 63.33
100.35 K | 63.68
105.25 K | 66.61
110 K | 69.28
110.61 K | 69.55
115.43 K | 72.27
120 K | 75.18
120.64 K | 75.36
125.54 K | 78.61
130 K | 81.02
130.77 K | 81.56
135.74 K | 84.75
140 K | 86.83
140.87 K | 87.47
145.76 K | 90.11
150 K | 92.61
151.03 K | 93.15
155.98 K | 95.92
160 K | 98.36
161.11 K | 99.11
166.15 K | 102.13
170 K | 104.1
171.25 K | 104.92
176.34 K | 107.5
180 K | 109.83
181.48 K | 110.56
186.59 K | 113.51
190 K | 115.56
191.69 K | 116.09
196.81 K | 119.53
200 K | 121.29
201.94 K | 122.16
207.17 K | 125.24
210 K | 127.02
212.26 K | 128.07
217.5 K | 130.91
220 K | 132.76
222.61 K | 134.51
227.74 K | 137.35
230 K | 138.51
232.87 K | 140.48
237.95 K | 142.93
240 K | 144.27
243.02 K | 146.31
248.07 K | 148.9
250 K | 150.04
253.18 K | 152.43
258.24 K | 154.94
260 K | 155.83
263.22 K | 158.02
268.36 K | 160.56
270 K | 161.64
273.15 K | 163.47
273.41 K | 163.59
278.46 K | 166.47
280 K | 167.46
283.51 K | 169.47
288.47 K | 172.37
290 K | 173.3
293.61 K | 175.31
298.15 K | 178.08
298.67 K | 177.87
300 K | 179.16
303.66 K | 181.61
